This note sets out measurements from ChEMBL document CHEMBL3808331, “Functionalized N,N-Diphenylamines as Potent and Selective EPAC2 Inhibitors” (ACS Med Chem Lett, 2016).

Activity calls are given as the source filed them. The rule behind the calls is not given here.

Test [1] concerns the target T1, Rap guanine nucleotide exchange factor 4 (Homo sapiens, UniProt Q8WZA2). The test can be described thus: Inhibition of EPAC2 (unknown origin) assessed as reduction in cAMP-mediated guanine nucleotide exchange factor activity in presence of C-terminal truncated Rap1B (1 to 167 residues)-BODIPY-GDP by microplate reader analysis. The following applies: for inhibition: concentration not given here.

In test [2] the target is T1, Rap guanine nucleotide exchange factor 4. In words: Inhibition of 8-NBD-cAMP binding to EPAC2 (unknown origin) by microplate reader analysis.
Test [3] has as its target T2, Rap guanine nucleotide exchange factor 3 (Homo sapiens) (UniProt O95398).
T2 sequence (whole entry): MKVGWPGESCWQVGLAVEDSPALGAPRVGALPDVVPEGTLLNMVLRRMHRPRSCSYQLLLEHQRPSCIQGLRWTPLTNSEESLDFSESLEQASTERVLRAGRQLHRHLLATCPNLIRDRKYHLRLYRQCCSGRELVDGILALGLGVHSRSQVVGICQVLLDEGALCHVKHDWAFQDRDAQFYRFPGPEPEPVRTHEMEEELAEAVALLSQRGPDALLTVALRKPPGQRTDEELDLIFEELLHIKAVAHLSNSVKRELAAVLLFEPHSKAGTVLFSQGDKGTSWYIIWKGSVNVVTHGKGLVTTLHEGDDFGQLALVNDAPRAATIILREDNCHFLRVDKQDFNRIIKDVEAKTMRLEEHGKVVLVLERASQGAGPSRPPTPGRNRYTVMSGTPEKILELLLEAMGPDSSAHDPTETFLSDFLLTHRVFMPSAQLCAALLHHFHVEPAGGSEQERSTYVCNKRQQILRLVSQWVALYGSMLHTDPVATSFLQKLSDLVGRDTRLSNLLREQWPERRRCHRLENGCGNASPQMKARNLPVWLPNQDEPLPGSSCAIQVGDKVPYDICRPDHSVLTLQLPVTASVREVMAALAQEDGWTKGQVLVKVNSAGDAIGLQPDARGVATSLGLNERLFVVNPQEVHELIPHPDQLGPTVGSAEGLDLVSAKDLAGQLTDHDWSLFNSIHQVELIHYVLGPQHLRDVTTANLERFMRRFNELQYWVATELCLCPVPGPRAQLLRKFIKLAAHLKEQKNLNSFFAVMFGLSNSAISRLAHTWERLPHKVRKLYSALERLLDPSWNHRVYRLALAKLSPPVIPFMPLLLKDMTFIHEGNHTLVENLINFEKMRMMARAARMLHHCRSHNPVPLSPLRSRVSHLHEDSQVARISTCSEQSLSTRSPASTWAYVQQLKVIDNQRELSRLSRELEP
The test can be described thus: Inhibition of EPAC1 (unknown origin) assessed as reduction in cAMP-mediated guanine nucleotide exchange factor activity up to 100 uM in presence of C-terminal truncated Rap1B (1 to 167 residues)-BODIPY-GDP by microplate reader analysis.

Test [4] has as its target T1, Rap guanine nucleotide exchange factor 4. In words: Non-competitive inhibition of EPAC2 (unknown origin) assessed as reduction in cAMP-mediated guanine nucleotide exchange factor activity at 1 uM in presence of C-terminal truncated Rap1B (1 to 167 residues)-BODIPY-GDP.
Target sequence in this assay (Q8WZA2 whole entry, looked up, the tested form may be a part): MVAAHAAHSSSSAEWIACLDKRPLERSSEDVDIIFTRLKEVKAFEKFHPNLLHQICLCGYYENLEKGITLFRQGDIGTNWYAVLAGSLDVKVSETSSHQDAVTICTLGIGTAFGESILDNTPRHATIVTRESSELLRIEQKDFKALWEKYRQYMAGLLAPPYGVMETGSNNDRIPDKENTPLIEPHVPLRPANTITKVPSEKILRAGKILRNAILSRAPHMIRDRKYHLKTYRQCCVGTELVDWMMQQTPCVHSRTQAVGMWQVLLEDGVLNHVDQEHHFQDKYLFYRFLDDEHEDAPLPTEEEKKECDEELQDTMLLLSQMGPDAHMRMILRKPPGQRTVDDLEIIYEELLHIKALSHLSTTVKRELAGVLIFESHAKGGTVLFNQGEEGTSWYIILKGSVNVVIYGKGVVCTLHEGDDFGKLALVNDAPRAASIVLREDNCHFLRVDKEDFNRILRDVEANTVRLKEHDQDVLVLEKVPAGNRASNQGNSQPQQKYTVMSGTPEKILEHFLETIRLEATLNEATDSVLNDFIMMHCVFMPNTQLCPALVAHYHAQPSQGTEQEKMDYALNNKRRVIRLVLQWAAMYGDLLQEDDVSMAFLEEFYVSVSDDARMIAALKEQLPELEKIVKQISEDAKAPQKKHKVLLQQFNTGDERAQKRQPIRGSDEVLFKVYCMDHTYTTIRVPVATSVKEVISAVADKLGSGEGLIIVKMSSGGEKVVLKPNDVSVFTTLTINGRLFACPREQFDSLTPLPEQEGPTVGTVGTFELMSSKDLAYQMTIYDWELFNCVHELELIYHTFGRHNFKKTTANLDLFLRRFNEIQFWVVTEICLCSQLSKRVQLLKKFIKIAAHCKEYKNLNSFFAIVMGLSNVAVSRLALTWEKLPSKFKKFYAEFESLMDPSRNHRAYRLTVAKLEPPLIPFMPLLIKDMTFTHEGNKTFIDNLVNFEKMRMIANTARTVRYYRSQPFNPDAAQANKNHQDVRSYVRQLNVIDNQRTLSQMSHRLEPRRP

Turning to `Cc1cc(C)c(Nc2c(C)cc(C)cc2C)c(C)c1`, the half-maximal inhibitory concentration (IC50) in test [1] came to 1700 nM; in test [2] it was 400 nM. The inhibition in test [1] was more than 80%; in test [2], “Dose-dependent effect”; in test [2] (concentration not given here), 80%. Besides, the inhibition entry in test [3] is “inactive”.
`Cc1cc(C)c(Nc2ccc(F)c(F)c2)c(C)c1`: the IC50 in test [2] turned out to be 8700 nM.
`Cc1cc(C)c(Nc2ccc(F)c(Cl)c2)c(C)c1` yielded a concentration for half-maximal inhibition (IC50) in test [2] of 2900 nM.
Still for that read-out and setting: as for `Cc1cc(C)c(Nc2c(F)cc(F)cc2F)c(C)c1`, the figure is 2700 nM; as for `Cc1cc(C)c(Nc2cccc(C(F)(F)F)c2)c(C)c1`, 2000 nM.
As for `Cc1cc(C)c(Nc2cc(F)c(F)c(F)c2)c(C)c1`, the IC50 in test [2] turned out to be 3000 nM.
The same measure, in the same setting: the same measure for `Cc1cc(C)c(C#Cc2cccc(Nc3c(C)cc(C)cc3C)c2)c(C)c1`: more than 300000 nM; for `Cc1cc(C)c(Nc2cccc(N)c2)c(C)c1`: 34000 nM.
The same measure, in the same setting: as for `Cc1cc(C)c(Nc2cc(F)cc(Cl)c2)c(C)c1`, the figure is 2900 nM.
Compound `Cc1cc(C)c(Nc2cc(Cl)cc(C(F)(F)F)c2)c(C)c1` gave an IC50 in test [2] of 500 nM.
For the compound `Cc1cc(C)c(Nc2ccc(Cl)c(C(F)(F)F)c2)c(C)c1`, in test [4], the inhibition entry is “Active”. In addition, the figures for the half-inhibitory concentration (IC50) in test [1] and in test [2] were 1000 nM and 400 nM, respectively. Further, the figures for the inhibition in test [1], in test [2] and in test [2] (concentration not given here) were more than 80%, “Dose-dependent effect” and 80%, respectively. In test [3], the inhibition result was “inactive”.
`Cc1cc(C)c(Nc2ccc(Br)cc2)c(C)c1` gave an IC50 in test [2] of 1600 nM.
Regarding `Cc1cc(C)c(Nc2cc(F)cc(F)c2)c(C)c1`, in test [2], the IC50 stood at 5700 nM.
With `CC(C)(C)c1cc(C(=O)/C(C#N)=N/Nc2cccc(Cl)c2)no1`, in test [1], the inhibition is more than 80%.
Take `Cc1cc(C)c(Nc2c(C)cc(Cl)cc2Cl)c(C)c1`: in test [2], the IC50 was 700 nM.
Consider `Cc1ccc(Nc2c(C)cc(C)cc2C)c(C)c1`, for which the IC50 in test [2] stood at 2200 nM.
Still for that read-out and setting: as for `Cc1cc(C)c(Nc2ccc(C)c(Cl)c2)c(C)c1`, the figure is 1800 nM; as for `Cc1cc(C)cc(Nc2c(C)cc(C)cc2C)c1`, 1700 nM.
Turning to `CCc1cccc(Nc2c(C)cc(C)cc2C)c1`, the IC50 in test [2] is 1800 nM.
`Cc1cc(C)c(Nc2cc(Cl)c(Cl)c(Cl)c2)c(C)c1`: in test [2], the IC50 came to 1100 nM.
`Cc1cc(C)c(Nc2cc(Cl)ccc2C)c(C)c1`: in test [2], the IC50 worked out at 1400 nM.
Regarding `Cc1cc(C)c(Nc2cc(C(F)(F)F)cc(C(F)(F)F)c2)c(C)c1`, the IC50 in test [1] turned out to be 1300 nM; in test [2] it was 600 nM. Further, the inhibition in test [1] is more than 80%; in test [2], “Dose-dependent effect”; in test [2] (concentration not given here) it was 60%. The inhibition entry in test [3] is “inactive”.
On to `Cc1cc(C)c(Nc2cc(C)ccc2C)c(C)c1`, for which the IC50 in test [2] is 1800 nM.
With `Cc1cc(C)c(Nc2cccc(Cl)c2C)c(C)c1`, the IC50 amounted to 3600 nM in test [1] and 500 nM in test [2]. In addition, the results for the inhibition in test [1], in test [2] and in test [2] (concentration not given here) were more than 80%, “Dose-dependent effect” and 80%, respectively. Besides, in test [3], the inhibition entry is “inactive”.
In the case of `Cc1cc(C)c(Nc2ccc(Cl)c(Cl)c2)c(C)c1`, the IC50 in test [2] is 1100 nM.
Same read-out and setting: as for `Cc1cc(C)c(Nc2ccc(Cl)c(F)c2)c(C)c1`, the figure is 3300 nM.
As for `Cc1cc(C)c(Nc2cccc(Br)c2)c(C)c1`, in test [2], the IC50 is 1500 nM.
Consider `Cc1cc(C)c(Nc2ccc3c(c2)CCC3)c(C)c1`, for which the IC50 in test [2] stood at 1800 nM.
The same measure, in the same setting: as for `Cc1cc(C)c(Nc2cccc(C)c2C)c(C)c1`, the figure is 1000 nM; as for `Cc1cc(C)c(Nc2cccc(F)c2)c(C)c1`, 5800 nM.
Same read-out and setting: as for `COc1cccc(Nc2c(C)cc(C)cc2C)c1`, the figure is 10700 nM.
Compound `Cc1cc(C)c(Nc2cccc(O)c2)c(C)c1` registered an IC50 in test [2] of 46000 nM.

Broadly, the IC50 is the concentration at which inhibition is half-maximal. In general, inhibition refers to the relative decrease from the control value, in per cent.
